Data taken from PubChem BioAssay (NCI).
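Test compounds were applied to cells in 96-well plates for 48 hours at 5 doses. At the GI50, growth is halved. At the TGI there is no net growth.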

Assays:
Experiment in all cases: NCI anticancer screen, dose series, 48 h
HCT-116 colon = tested on: HCT-116 colon
HS 578T breast = tested on: HS 578T breast
K-562 leukemia = tested on: K-562 leukemia
HOP-92 NSCLC = tested on: HOP-92 NSCLC
A498 renal = tested on: A498 renal
SNB-75 CNS = tested on: SNB-75 CNS
EKVX NSCLC = tested on: EKVX NSCLC
OVCAR-8 ovarian = tested on: OVCAR-8 ovarian
KM12 colon = tested on: KM12 colon
U251 CNS = tested on: U251 CNS
SK-MEL-2 melanoma = tested on: SK-MEL-2 melanoma
HL-60(TB) leukemia = tested on: HL-60(TB) leukemia
RXF 393 renal = tested on: RXF 393 renal
A549 NSCLC = tested on: A549 NSCLC
HCT-15 colon = tested on: HCT-15 colon
MCF7 breast = tested on: MCF7 breast
MDA-MB-468 breast = tested on: MDA-MB-468 breast
BT-549 breast = tested on: BT-549 breast
UACC-62 melanoma = tested on: UACC-62 melanoma
ACHN renal = tested on: ACHN renal
TK-10 renal = tested on: TK-10 renal
SF-539 CNS = tested on: SF-539 CNS
OVCAR-3 ovarian = tested on: OVCAR-3 ovarian
NCI/ADR-RES ovarian = tested on: NCI/ADR-RES ovarian
NCI-H23 lung = tested on: NCI-H23 lung
OVCAR-4 ovarian = tested on: OVCAR-4 ovarian
HOP-62 NSCLC = tested on: HOP-62 NSCLC
RPMI-8226 leukemia = tested on: RPMI-8226 leukemia
IGROV1 ovarian = tested on: IGROV1 ovarian
NCI-H226 lung = tested on: NCI-H226 lung

CCc1ccccc1NC(=O)N/C(N)=N/c1nc2ccccc2s1
TGI (HCT-116 colon): 1470 nM | GI50 (HS 578T breast): 28.1 nM | TGI (HS 578T breast): 7270 nM | GI50 (K-562 leukemia): 23.3 nM | TGI (K-562 leukemia): 14400 nM | GI50 (HOP-92 NSCLC): 3090 nM | TGI (HOP-92 NSCLC): 29600 nM | GI50 (A498 renal): 16400 nM | TGI (A498 renal): 45600 nM | GI50 (SNB-75 CNS): < 18 nM | TGI (SNB-75 CNS): 4640 nM | GI50 (EKVX NSCLC): 50.3 nM | TGI (EKVX NSCLC): 16100 nM | GI50 (OVCAR-8 ovarian): 37 nM | TGI (OVCAR-8 ovarian): 3520 nM | GI50 (KM12 colon): 38.1 nM | TGI (KM12 colon): 11100 nM | GI50 (U251 CNS): 37 nM | TGI (U251 CNS): 5640 nM | GI50 (SK-MEL-2 melanoma): 33.8 nM | TGI (SK-MEL-2 melanoma): 10800 nM | GI50 (HL-60(TB) leukemia): 33.4 nM | TGI (HL-60(TB) leukemia): 6310 nM | GI50 (RXF 393 renal): 22.5 nM | TGI (RXF 393 renal): 7530 nM | GI50 (A549 NSCLC): 64 nM | TGI (A549 NSCLC): > 38800 nM | GI50 (HCT-15 colon): 29.3 nM | TGI (HCT-15 colon): 7030 nM | GI50 (MCF7 breast): 32.9 nM | TGI (MCF7 breast): 12300 nM | GI50 (MDA-MB-468 breast): 23.3 nM | TGI (MDA-MB-468 breast): 62.5 nM | GI50 (BT-549 breast): 91 nM | TGI (BT-549 breast): 1790 nM | GI50 (UACC-62 melanoma): 38.3 nM | TGI (UACC-62 melanoma): 22700 nM | GI50 (ACHN renal): 79.3 nM | TGI (ACHN renal): 6210 nM | GI50 (TK-10 renal): 4490 nM | TGI (TK-10 renal): 50000 nM | GI50 (SF-539 CNS): 21.1 nM | TGI (SF-539 CNS): 64.2 nM | GI50 (OVCAR-3 ovarian): 39.6 nM | TGI (OVCAR-3 ovarian): 1550 nM | GI50 (NCI/ADR-RES ovarian): 24.4 nM | TGI (NCI/ADR-RES ovarian): 64.3 nM | GI50 (NCI-H23 lung): 45.4 nM | TGI (NCI-H23 lung): 5480 nM | GI50 (OVCAR-4 ovarian): 1670 nM | TGI (OVCAR-4 ovarian): 24700 nM | GI50 (HOP-62 NSCLC): 69.6 nM | TGI (HOP-62 NSCLC): 4550 nM | GI50 (RPMI-8226 leukemia): 44.5 nM | TGI (RPMI-8226 leukemia): 21100 nM | GI50 (IGROV1 ovarian): 56.7 nM | TGI (IGROV1 ovarian): 15200 nM | GI50 (NCI-H226 lung): 144 nM | TGI (NCI-H226 lung): 1520 nM
